Reference: US20260042762A1 (Kymera Therapeutics, Inc., priority 2018, published 2026)
Counter-ions that a name gives are not always drawn.

Biological target: T1, MerTK (Homo sapiens, UniProt Q12866)
T1 construct: endogenous in cells; host or cells: Jurkat cells
T1 sequence (Q12866 21-999): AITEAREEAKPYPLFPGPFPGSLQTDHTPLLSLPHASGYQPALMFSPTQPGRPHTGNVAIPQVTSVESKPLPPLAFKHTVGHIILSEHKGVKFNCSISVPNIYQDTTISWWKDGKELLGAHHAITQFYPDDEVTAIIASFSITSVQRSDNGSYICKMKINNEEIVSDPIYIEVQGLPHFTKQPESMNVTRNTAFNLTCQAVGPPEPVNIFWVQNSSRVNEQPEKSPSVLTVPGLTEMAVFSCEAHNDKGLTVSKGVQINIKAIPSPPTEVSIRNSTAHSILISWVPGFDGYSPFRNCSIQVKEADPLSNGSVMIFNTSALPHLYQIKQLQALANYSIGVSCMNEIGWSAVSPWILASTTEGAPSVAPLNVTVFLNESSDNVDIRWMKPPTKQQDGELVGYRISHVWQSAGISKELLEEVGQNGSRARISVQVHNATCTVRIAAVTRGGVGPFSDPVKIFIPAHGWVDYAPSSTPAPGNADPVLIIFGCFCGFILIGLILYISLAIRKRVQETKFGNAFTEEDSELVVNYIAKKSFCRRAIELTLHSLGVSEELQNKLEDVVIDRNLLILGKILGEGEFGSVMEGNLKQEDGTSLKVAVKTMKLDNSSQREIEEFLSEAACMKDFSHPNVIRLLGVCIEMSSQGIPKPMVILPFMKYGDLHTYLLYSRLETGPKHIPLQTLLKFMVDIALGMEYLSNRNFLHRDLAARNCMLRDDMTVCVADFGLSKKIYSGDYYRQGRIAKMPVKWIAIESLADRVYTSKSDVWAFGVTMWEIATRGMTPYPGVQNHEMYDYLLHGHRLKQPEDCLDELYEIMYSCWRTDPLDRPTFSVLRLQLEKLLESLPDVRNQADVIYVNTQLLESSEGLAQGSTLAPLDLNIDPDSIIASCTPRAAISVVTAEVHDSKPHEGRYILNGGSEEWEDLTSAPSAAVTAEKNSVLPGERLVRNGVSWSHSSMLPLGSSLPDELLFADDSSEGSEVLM
Experiment: MerTk degradation in Jurkat cells (Western blot)
Type: cell-based
Details: Jurkat, 4 h, 0.001-1 μM, 4 hour-incubation at 37° C., read-out: Jurkat Max % MerTK Degradation
How it was run: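 MerTK degradation was read by near-infrared Western blot, normalized to actin, in BCA-quantified lysates of Jurkat cells exposed to 0.001-1 μM compound for 4 h at 37 °C.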

Dmax | SMILES
> 50% | Cn1c(=O)n([C@H]2CCC(=O)NC2=O)c2ccc(CCCOCCOC3CCN(C[C@H]4CC[C@@H](c5cn([C@H]6CC[C@H](O)CC6)c6nc(NCCC(F)(F)F)ncc65)CC4)CC3)cc21 [I-171, 3-[3-methyl-2-oxo-5-(3-[2-[(1-[[cis-4-[7-[trans-4-hydroxycyclohexyl]-2-[(3,3,3-trifluoropropyl)amino]pyrrolo[2,3-d]pyrimidin-5-yl]cyclohexyl]methyl]piperidin-4-yl)oxy]ethoxy]propyl)-1,3-benzodiazol-1-y1]piperidine-2,6-dione]
> 50% | Cn1c(=O)n([C@H]2CCC(=O)NC2=O)c2ccc(CCCOCCOCC3CCN(C[C@H]4CC[C@H](c5cn([C@H]6CC[C@H](O)CC6)c6nc(NCCC(F)(F)F)ncc65)CC4)CC3)cc21 [I-172, 3-[3-methyl-2-oxo-5-(3-[2-[(1-[[trans-4-[7-[trans-4-hydroxycyclohexy1]-2-[(3,3,3-trifluoropropyl)amino]pyrrolo[2,3-d]pyrimidin-5-yl]cyclohexyl]methyl]piperidin-4-yl)methoxy]ethoxy]propy1)-1,3-benzodiazol-1-yl]piperidine-2,6-dione]
20 to 50% | Cc1ncsc1-c1ccc(CNC(=O)[C@@H]2C[C@@H](O)CN2C(=O)[C@@H](NC(=O)COCCOCCOCCOCCN2CCN(Cc3ccc(-c4cn([C@H]5CC[C@H](O)CC5)c5nc(NCCC(F)(F)F)ncc45)cc3)CC2)C(C)(C)C)cc1 [I-173, (2S,4R)-1-[(2S)-3,3-dimethyl-2-(14-[4-[(4-[7-[(1r,4r)-4-hydroxycyclohexyl]-2-[(3,3,3-trifluoropropyl)amino]pyrrolo[2,3-d]pyrimidin-5-yl]phenyl)methyl]piperazin-1-yl]-3,6,9,12-tetraoxatetradecanamido)butanoyl]-4-hydroxy-N-[[4-(4-methyl-1,3-thiazol-5-yl)phenyl]methyl]pyrrolidine-2-carboxamide]
20 to 50% | Cc1ncsc1-c1ccc(CNC(=O)[C@@H]2C[C@@H](O)CN2C(=O)[C@@H](NC(=O)C2(F)CC2)C(C)(C)C)c(OCCOCCN2CCN(Cc3ccc(-c4cn([C@H]5CC[C@H](O)CC5)c5nc(NCCC(F)(F)F)ncc45)cc3)CC2)c1 [I-174]
> 50% | CCC[C@@H](C)Nc1ncc2c(-c3ccc(CN4CCN(CCCO[C@H]5CCN(Cc6ccc7c(c6)n(C)c(=O)n7C6CCC(=O)NC6=O)C5)CC4)cc3)cn([C@H]3CC[C@H](O)CC3)c2n1 (stereo partly shown) [I-176]
> 50% | CCC[C@H](C)Nc1ncc2c(-c3ccc(CN4CCN(CCCO[C@H]5CCN(Cc6ccc7c(c6)n(C)c(=O)n7C6CCC(=O)NC6=O)C5)CC4)cc3)cn([C@H]3CC[C@H](O)CC3)c2n1 (stereo partly drawn) [I-177, 3-(3-methyl-2-oxo-5-[[(3S)-3-(3-[4-[(4-[2-[(2S)-pentan-2-ylamino]-7-[trans-4-hydroxycyclohexyl]pyrrolo[2,3-d]pyrimidin-5-yl]phenyl)methyl]piperazin-1-yl]propoxy)pyrrolidin-1-yl]methyl]-1,3-benzodiazol-1-yl)piperidine-2,6-dione]
> 50% | CCC[C@H](C)Nc1ncc2c(-c3ccc(CN4CCN(CCCOC5CN(Cc6ccc7c(c6)n(C)c(=O)n7C6CCC(=O)NC6=O)C5)CC4)cc3)cn([C@H]3CC[C@H](O)CC3)c2n1 (stereo partly drawn) [I-178, 3-(3-methyl-2-oxo-5-[[3-(3-[4-[(4-[2-[(2S)-pentan-2-ylamino]-7-[trans-4-hydroxycyclohexyl]pyrrolo[2,3-d]pyrimidin-5-yl]phenyl)methyl]piperazin-1-yl]propoxy)azetidin-1-yl]methyl]-1,3-benzodiazol-1-yl)piperidine-2,6-dione]
< 20% | Cc1cc(CNCc2ccc(C(=O)N3CCC(C4CCN(Cc5ccc(-c6cn([C@H]7CC[C@H](O)CC7)c7nc(NCCC(F)(F)F)ncc67)cc5)CC4)CC3)cc2)ccc1-c1ccc2nn(CC3CC3)cc2c1 [I-180, trans-4-[5-(4-[[1-(4-[[([4-[2-(Cyclopropylmethyl)indazol-5-yl]-3-methylphenyl]methyl)amino]methyl]benzoyl)-[4,4-bipiperidin]-1-yl]methyl]phenyl)-2-[(3,3,3-trifluoropropyl)amino]pyrrolo[2,3-d]pyrimidin-7-yl]cyclohexan-1-ol hydrochloride]
< 20% | O=C(c1ccc(CNCc2ccc(-c3ccc4c(cnn4CC4CC4)c3)cc2)cc1)N1CC(C2CCN(Cc3ccc(-c4cn([C@H]5CC[C@H](O)CC5)c5nc(NCCC(F)(F)F)ncc45)cc3)CC2)C1 [I-181, trans-4-[5-[4-([4-[1-(4-[[([4-[1-(Cyclopropylmethyl)indazol-5-yl]phenyl]methyl)amino]methyl]benzoyl)azetidin-3-yl]piperidin-1-yl]methyl)phenyl]-2-[(3,3,3-trifluoropropyl)amino]pyrrolo[2,3-d]pyrimidin-7-yl]cyclohexan-1-ol]
20 to 50% | CN1CCN(Cc2ccc(-c3ccc(CO[C@H]4CCC[C@@H]4NC(=O)c4cc(-c5cnn(CCOCCOCCCc6ccc7c(c6)n(C)c(=O)n7C6CCC(=O)NC6=O)c5)cnc4N)cc3)cc2)CC1 (stereo partly drawn) [I-182, 2-Amino-5-(1-[2-(2-[3-[1-(2,6-dioxopiperidin-3-yl)-3-methyl-2-oxo-1,3-benzodiazol-5-yl]propoxy]ethoxy)ethyl]pyrazol-4-yl]-N-[(1S,2S)-2-([4-[(4-methylpiperazin-1-yl)methyl]-[1,1-biphenyl]-4-yl]methoxy)cyclopentyl]pyridine-3-carboxamide]
< 20% | CN1CCN(Cc2ccc(-c3ccc(CO[C@H]4CCC[C@@H]4NC(=O)c4cc(-c5cnn(CCCc6cccc7c6n(C)c(=O)n7C6CCC(=O)NC6=O)c5)cnc4N)cc3)cc2)CC1 (stereo partly drawn) [I-183, 2-Amino-5-(1-[3-[1-(2,6-dioxopiperidin-3-yl)-3-methyl-2-oxo-1,3-benzodiazol-4-yl]propyl]pyrazol-4-yl)-N-[(1S,2S)-2-([4-[(4-methylpiperazin-1-yl)methyl]-[1,1-biphenyl]-4-yl]methoxy)cyclopentyl]pyridine-3-carboxamide]
20 to 50% | CN1CCN(Cc2ccc(-c3ccc(CO[C@H]4CCC[C@@H]4NC(=O)c4cc(-c5cnn(CCOCCOCCCc6cccc7c6n(C)c(=O)n7C6CCC(=O)NC6=O)c5)cnc4N)cc3)cc2)CC1 (stereo partly drawn) [I-184, 2-Amino-5-[1-[2-(2-[3-[1-(2,6-dioxopiperidin-3-yl)-3-methyl-2-oxo-1,3-benzodiazol-4-yl]propoxy]ethoxy)ethyl]pyrazol-4-yl]-N-[(1S,2S)-2-([4-[(4-methylpiperazin-1-yl)methyl]-[1,1-biphenyl]-4-yl]methoxy)cyclopentyl]pyridine-3-carboxamide]
> 50% | C[C@H](Nc1ncc2c(-c3ccc(CN4CCN(CCCCOCCCc5ccc6c(c5)n(C)c(=O)n6C5CCC(=O)NC5=O)CC4)cc3)cn([C@H]3CC[C@H](O)CC3)c2n1)C(F)F (stereo partly shown) [I-185]

SMILES | Dmax
Cn1c(=O)n([C@H]2CCC(=O)NC2=O)c2ccc(CCO[C@H]3C[C@H](N4CCN(Cc5ccc(-c6cn([C@H]7CC[C@H](O)CC7)c7nc(NCCC(F)(F)F)ncc67)cc5)CC4)C3)cc21 [I-170, 3-(3-methyl-2-oxo-5-[2-[trans-3-[4-[(4-[7-[trans-4-hydroxycyclohexy1]-2-[(3,3,3-trifluoropropyl)amino]pyrrolo[2,3-d]pyrimidin-5-yl]phenyl)methyl]piperazin-1-yl]cyclobutoxy]ethyl]-1,3-benzodiazol-1-y1)piperidine-2,6-dione; formic acid] | > 50%
CCC[C@H](C)Nc1ncc2c(-c3ccc(CN4CCN(C5CC(OCCc6ccc7c(c6)n(C)c(=O)n7C6CCC(=O)NC6=O)C5)CC4)cc3)cn([C@H]3CC[C@H](O)CC3)c2n1 (stereo partly drawn) [I-175, 3-[3-methyl-2-oxo-5-[2-(3-[4-[(4-[2-[(2S)-pentan-2-ylamino]-7-[trans-4-hydroxycyclohexyl]pyrrolo[2,3-d]pyrimidin-5-yl]phenyl)methyl]piperazin-1-yl]cyclobutoxy)ethyl]-1,3-benzodiazol-1-yl]piperidine-2,6-dione] | > 50%
Cc1ncsc1-c1ccc(CNC(=O)[C@@H]2C[C@@H](O)CN2C(=O)[C@@H](NC(=O)C2(F)CC2)C(C)(C)C)c(OCCCCN2CCN(Cc3ccc(-c4cn([C@H]5CC[C@H](O)CC5)c5nc(NCCC(F)(F)F)ncc45)cc3)CC2)c1 [I-179, (2S,4R)-1-[(2S)-2-[(1-fluorocyclopropyl)formamido]-3,3-dimethylbutanoyl]-4-hydroxy-N-[[4-(4-methyl-1,3-thiazol-5-yl)-2-(4-[4-[(4-[7-[trans-4-hydroxycyclohexyl]-2-[(3,3,3-trifluoropropyl)amino]pyrrolo[2,3-d]pyrimidin-5-yl]phenyl)methyl]piperazin-1-yl]butoxy)phenyl]methyl]pyrrolidine-2-carboxamide] | 20 to 50%
